How the values were obtained:
[1] = system: peripheral blood mononuclear cells (PBMCs); experiment: PBMC proliferation / tolerance; format: cell-based
Protocol: Peripheral blood mononuclear Cells (PBMC) were isolated from peripheral whole blood from controls using Histopaque®-1077 (Sigma-Aldrich, San Luis, MO, USA) following the manufacturer's instructions. Briefly, peripheral blood was collected in heparin and diluted with equal amount of PBS. Next, blood was centrifuged with Histopaque®-1077 at 400 × g for 30 min at room temperature and the PBMC layer was recovered. All steps were processed within 4 h after blood extraction.
PMBCs and CD34- fraction (CB) were cultured in the presence of PHA-L (Sigma-Aldrich, ref: 11249738001) or Dynabeads® Human T-Activator CD3/CD28 (Thermofisher scientific, ref: 11131D) for the activation and expansion of human T cells according to the manufacturer's instructions. […]
experiments (Supplementary Table S1).
PBMCs from two donors were activated using Dynabeads and exposed to 10 µM TH5487 during 72 h […]
to follow cell numbers. […] CD3+ T-cells were activated with Dynabeads and treated with DMSO or TH5487 for 6 days, or 25 µM camptothecin for 24 h as a technical control. Survival was assessed by flow cytometry. Data are three technical replicates from one donor, representative of four individuals. Paired, two-sided T-tests were used to assess significance (ns, non-significant, ****, P<0.0001). I. to K. Gating strategy for identification of dead cells. CD3+ cells were stained with Annexin V and Sytox Blue. […]

[2] = design: method as in PMID 30442810; conditions: cited from earlier work
[3] = system: γH2AX in A3 cells; experiment: Phosphorylated γH2AX (immunofluorescence / flow cytometry); format: cell-based, human; conditions: 10 μM
Protocol: A3 cells were seeded in a 96-well plate 24 h prior to start of the experiment. Cells were then treated with 10 μM TH5487, for 24, 48 and 72 h, respectively or with 2 mM hydroxyurea for 1 h. Final DMSO concentration was 0.2%. After the treatment, cells were transferred to an imaging plate (black Falcon 96-well plate) pre-coated with 0.1% poly L-lysine (Sigma). Cells were allowed to attach for 15 minutes and were then fixed with 4% paraformaldehyde. The plate was washed with 0.05% Tween 20 in PBS, cells were permeabilized with 0.5% Triton-X100 in PBS and blocked with 2% bovine serum albumin in PBS. […] Data from three independent experiments were pooled and analyzed for statistical significance by one-way analysis of variance.
At the indicated time points, compound/dox treated cells were incubated in medium containing 10 μM 5-ethynyl-2′-deoxyuridine (EdU) (Thermo Fisher, A10044) for 20 min. […] Data was analyzed using Kaluza® Flow Analysis Software (Beckman Coulter).
Figure 5. […] A3 cells were treated with 20 mM KBrO3 for 1 h or with 10 μM TH5487 for the indicated times, and the amount of genomic 8-oxodG was quantified with LC-MS/MS. […] A3 cells were treated with 10 μM TH5487 for 72 h and strand-breaks and OGG1 substrate lesions were analyzed with the OGG1-modified Comet assay. […] At least 33 000 nuclei per group were quantified from three independent experiments. […]

## O=C(Nc1ccc(I)cc1)N1CCC(n2c(=O)[nH]c3c(Br)cccc32)CC1 [TH5487]
[1]; 10 μM, healthy donors
  Tolerance by resting and activated PBMCs: well tolerated
[1]; Dynabeads-activated PBMCs from two donors, 10 µM, 72 h
  Proliferation of activated PBMCs: does not affect proliferation
[2]
  Stability in mouse serum: stable
[3]; 72 h
  Cell cycle distribution of γH2AX positive cells: confined to S-phase cells
[3]; after 24 h
  Phosphorylated γH2AX: significant increase
